# According to ChEMBL document CHEMBL4049403, “Oligo-aspartic acid conjugates with benzo[c][2,6]naphthyridine-8-carboxylic acid scaffold as picomolar inhibitors of CK2” (Bioorg Med Chem, 2017):
# Where a SMILES comes first, the peptide text is derived from it. The star is where a group is joined. X1 = O=C(O)c1ccc2c(c1)nc(OCCCCCCCCC(=O)*)c1ccncc12
# Assays:
# [1] = target: Serine/threonine-protein kinase WNK1 (Homo sapiens) (UniProt Q9H4A3); assay: Inhibition of human WNK1 assessed as residual activity at 1 uM in presence of [33P]ATP by filter binding assay relative to control
# [2] = target: Serine/threonine-protein kinase PAK 4 (Homo sapiens) (UniProt O96013); assay: Inhibition of human PAK4 assessed as residual activity at 1 uM in presence of [33P]ATP by filter binding assay relative to control
# [3] = target: Serine/threonine-protein kinase PINK1, mitochondrial (Homo sapiens) (UniProt Q9BXM7); assay: Inhibition of human PINK assessed as residual activity at 1 uM in presence of [33P]ATP by filter binding assay relative to control
# [4] = target: Mitogen-activated protein kinase 3 (Homo sapiens) (UniProt P27361); assay: Inhibition of human ERK1 assessed as residual activity at 1 uM in presence of [33P]ATP by filter binding assay relative to control
# [5] = target: Casein kinase I isoform delta (Homo sapiens) (UniProt P48730); assay: Inhibition of human CK1delta assessed as residual activity at 1 uM in presence of [33P]ATP by filter binding assay relative to control
# [6] = target: Serine/threonine-protein kinase PAK 2 (Homo sapiens) (UniProt Q13177); assay: Inhibition of human PAK2 assessed as residual activity at 1 uM in presence of [33P]ATP by filter binding assay relative to control
# [7] = target: 3-phosphoinositide-dependent protein kinase 1 (Homo sapiens) (UniProt O15530); assay: Inhibition of human PDK1 assessed as residual activity at 1 uM in presence of [33P]ATP by filter binding assay relative to control
# [8] = target: Platelet-derived growth factor receptor alpha (Homo sapiens) (UniProt P16234); assay: Inhibition of human PDGFRA assessed as residual activity at 1 uM in presence of [33P]ATP by filter binding assay relative to control
# [9] = target: Serine/threonine-protein kinase ULK2 (Homo sapiens) (UniProt Q8IYT8); assay: Inhibition of human ULK2 assessed as residual activity at 1 uM in presence of [33P]ATP by filter binding assay relative to control
# [10] = target: Serine/threonine-protein kinase pim-3 (Homo sapiens) (UniProt Q86V86); assay: Inhibition of human PIM3 assessed as residual activity at 1 uM in presence of [33P]ATP by filter binding assay relative to control
# [11] = target: Homeodomain-interacting protein kinase 1 (Homo sapiens) (UniProt Q86Z02); assay: Inhibition of human HIPK1 assessed as residual activity at 1 uM in presence of [33P]ATP by filter binding assay relative to control
# [12] = target: Dual specificity tyrosine-phosphorylation-regulated kinase 3 (Homo sapiens) (UniProt O43781); assay: Inhibition of human DYRK3 assessed as residual activity at 1 uM in presence of 33P-ATP by filter-binding assay relative to control
# [13] = target: Mitogen-activated protein kinase 15 (Homo sapiens) (UniProt Q8TD08); assay: Inhibition of human ERK8 assessed as residual activity at 1 uM in presence of 33P-ATP by filter-binding assay relative to control
# [14] = target: High affinity nerve growth factor receptor (Homo sapiens) (UniProt P04629); assay: Inhibition of human TrkA assessed as residual activity at 1 uM in presence of [33P]ATP by filter binding assay relative to control
# [15] = target: Glycogen synthase kinase-3 beta (Homo sapiens) (UniProt P49841); assay: Inhibition of human GSK3beta assessed as residual activity at 1 uM in presence of 33P-ATP by filter-binding assay relative to control
# [16] = target: Serine/threonine-protein kinase Nek6 (Homo sapiens) (UniProt Q9HC98); assay: Inhibition of human NEK6 assessed as residual activity at 1 uM in presence of [33P]ATP by filter binding assay relative to control
# [17] = target: Serine/threonine-protein kinase BRSK2 (Homo sapiens) (UniProt Q8IWQ3); assay: Inhibition of human BRSK2 assessed as residual activity at 1 uM in presence of [33P]ATP by filter binding assay relative to control
# [18] = target: Angiopoietin-1 receptor (Homo sapiens) (UniProt Q02763); assay: Inhibition of human TIE2 assessed as residual activity at 1 uM in presence of 33P-ATP by filter-binding assay relative to control
# [19] = target: Serine/threonine-protein kinase TBK1 (Homo sapiens) (UniProt Q9UHD2); assay: Inhibition of human TBK1 assessed as residual activity at 1 uM in presence of 33P-ATP by filter-binding assay relative to control
# [20] = target: Tyrosine-protein kinase BTK (Homo sapiens) (UniProt Q06187); assay: Inhibition of human BTK assessed as residual activity at 1 uM in presence of 33P-ATP by filter-binding assay relative to control
# [21] = target: TGF-beta receptor type-1 (Homo sapiens) (UniProt P36897); assay: Inhibition of human TGFBR1 assessed as residual activity at 1 uM in presence of [33P]ATP by filter binding assay relative to control
# [22] = target: Interleukin-1 receptor-associated kinase 1 (Homo sapiens) (UniProt P51617); assay: Inhibition of human IRAK1 assessed as residual activity at 1 uM in presence of [33P]ATP by filter binding assay relative to control
# [23] = target: SRSF protein kinase 1 (Homo sapiens) (UniProt Q96SB4); assay: Inhibition of human SRPK1 assessed as residual activity at 1 uM in presence of [33P]ATP by filter binding assay relative to control
# [24] = target: Serine/threonine-protein kinase OSR1 (Homo sapiens) (UniProt O95747); assay: Inhibition of human OSR1 assessed as residual activity at 1 uM in presence of [33P]ATP by filter binding assay relative to control
# Sequence of Serine/threonine-protein kinase TBK1 (Homo sapiens) (Q9UHD2 whole entry): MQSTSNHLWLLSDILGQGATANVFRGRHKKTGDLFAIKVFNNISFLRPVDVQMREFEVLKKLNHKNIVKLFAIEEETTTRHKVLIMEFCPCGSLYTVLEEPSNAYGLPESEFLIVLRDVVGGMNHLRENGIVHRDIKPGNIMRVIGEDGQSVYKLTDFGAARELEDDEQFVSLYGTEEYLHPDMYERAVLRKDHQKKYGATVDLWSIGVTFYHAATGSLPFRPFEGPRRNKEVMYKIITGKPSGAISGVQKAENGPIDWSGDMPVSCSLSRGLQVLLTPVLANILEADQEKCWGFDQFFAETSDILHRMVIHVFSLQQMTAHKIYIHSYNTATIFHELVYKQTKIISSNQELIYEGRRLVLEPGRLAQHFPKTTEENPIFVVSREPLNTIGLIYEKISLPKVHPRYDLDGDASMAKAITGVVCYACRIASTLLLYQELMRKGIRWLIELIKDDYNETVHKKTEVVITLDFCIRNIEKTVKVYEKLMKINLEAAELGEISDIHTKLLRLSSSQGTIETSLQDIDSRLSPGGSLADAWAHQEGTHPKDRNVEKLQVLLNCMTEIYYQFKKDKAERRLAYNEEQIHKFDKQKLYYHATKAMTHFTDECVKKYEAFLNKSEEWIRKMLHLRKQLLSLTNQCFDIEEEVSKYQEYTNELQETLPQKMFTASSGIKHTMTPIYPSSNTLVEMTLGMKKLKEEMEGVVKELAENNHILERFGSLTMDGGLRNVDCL
# Sequence of Serine/threonine-protein kinase PAK 2 (Homo sapiens) (Q13177 whole entry): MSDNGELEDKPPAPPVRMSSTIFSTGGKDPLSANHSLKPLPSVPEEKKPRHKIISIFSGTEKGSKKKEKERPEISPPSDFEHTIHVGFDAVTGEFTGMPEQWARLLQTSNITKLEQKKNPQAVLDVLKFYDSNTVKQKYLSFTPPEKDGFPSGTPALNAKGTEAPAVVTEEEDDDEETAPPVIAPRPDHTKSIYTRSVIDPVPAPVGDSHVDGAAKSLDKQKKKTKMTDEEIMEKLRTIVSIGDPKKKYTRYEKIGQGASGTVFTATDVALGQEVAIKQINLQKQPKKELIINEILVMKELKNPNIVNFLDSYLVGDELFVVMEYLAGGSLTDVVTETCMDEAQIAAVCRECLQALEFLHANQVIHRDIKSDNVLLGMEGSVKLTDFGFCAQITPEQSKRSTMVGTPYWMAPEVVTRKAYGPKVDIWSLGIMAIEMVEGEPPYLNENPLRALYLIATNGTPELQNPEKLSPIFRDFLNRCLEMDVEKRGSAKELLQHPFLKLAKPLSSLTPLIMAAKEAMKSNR
# Sequence of Serine/threonine-protein kinase PINK1, mitochondrial (Homo sapiens) (Q9BXM7 whole entry): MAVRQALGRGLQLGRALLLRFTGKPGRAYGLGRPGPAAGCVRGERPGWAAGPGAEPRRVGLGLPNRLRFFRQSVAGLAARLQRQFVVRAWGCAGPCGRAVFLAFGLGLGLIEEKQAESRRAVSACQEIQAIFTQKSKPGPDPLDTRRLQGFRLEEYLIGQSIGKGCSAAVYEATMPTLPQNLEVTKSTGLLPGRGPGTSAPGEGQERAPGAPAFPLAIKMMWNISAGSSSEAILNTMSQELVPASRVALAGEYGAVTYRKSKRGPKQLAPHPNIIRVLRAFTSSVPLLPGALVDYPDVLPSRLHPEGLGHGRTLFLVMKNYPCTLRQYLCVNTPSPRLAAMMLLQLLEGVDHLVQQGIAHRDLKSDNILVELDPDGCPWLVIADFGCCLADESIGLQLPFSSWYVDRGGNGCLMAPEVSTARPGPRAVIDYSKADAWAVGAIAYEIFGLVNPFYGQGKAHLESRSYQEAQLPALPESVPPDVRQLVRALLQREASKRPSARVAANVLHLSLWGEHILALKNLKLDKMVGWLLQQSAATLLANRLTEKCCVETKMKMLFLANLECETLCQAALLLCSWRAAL
# Sequence of 3-phosphoinositide-dependent protein kinase 1 (Homo sapiens) (O15530 whole entry): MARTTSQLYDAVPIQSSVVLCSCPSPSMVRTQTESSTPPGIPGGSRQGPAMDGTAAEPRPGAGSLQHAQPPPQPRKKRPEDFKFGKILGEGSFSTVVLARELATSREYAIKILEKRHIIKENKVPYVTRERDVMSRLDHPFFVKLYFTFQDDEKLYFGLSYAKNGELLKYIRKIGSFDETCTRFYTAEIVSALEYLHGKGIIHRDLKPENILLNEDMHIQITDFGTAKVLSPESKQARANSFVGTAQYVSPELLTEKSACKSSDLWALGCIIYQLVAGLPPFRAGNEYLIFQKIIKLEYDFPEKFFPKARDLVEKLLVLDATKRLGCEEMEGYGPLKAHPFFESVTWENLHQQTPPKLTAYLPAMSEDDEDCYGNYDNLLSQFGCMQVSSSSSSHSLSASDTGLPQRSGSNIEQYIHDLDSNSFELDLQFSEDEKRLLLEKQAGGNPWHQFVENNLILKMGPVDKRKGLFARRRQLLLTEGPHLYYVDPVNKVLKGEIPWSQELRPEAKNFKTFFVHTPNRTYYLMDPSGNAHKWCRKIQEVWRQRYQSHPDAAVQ
# Sequence of Angiopoietin-1 receptor (Homo sapiens) (Q02763 whole entry): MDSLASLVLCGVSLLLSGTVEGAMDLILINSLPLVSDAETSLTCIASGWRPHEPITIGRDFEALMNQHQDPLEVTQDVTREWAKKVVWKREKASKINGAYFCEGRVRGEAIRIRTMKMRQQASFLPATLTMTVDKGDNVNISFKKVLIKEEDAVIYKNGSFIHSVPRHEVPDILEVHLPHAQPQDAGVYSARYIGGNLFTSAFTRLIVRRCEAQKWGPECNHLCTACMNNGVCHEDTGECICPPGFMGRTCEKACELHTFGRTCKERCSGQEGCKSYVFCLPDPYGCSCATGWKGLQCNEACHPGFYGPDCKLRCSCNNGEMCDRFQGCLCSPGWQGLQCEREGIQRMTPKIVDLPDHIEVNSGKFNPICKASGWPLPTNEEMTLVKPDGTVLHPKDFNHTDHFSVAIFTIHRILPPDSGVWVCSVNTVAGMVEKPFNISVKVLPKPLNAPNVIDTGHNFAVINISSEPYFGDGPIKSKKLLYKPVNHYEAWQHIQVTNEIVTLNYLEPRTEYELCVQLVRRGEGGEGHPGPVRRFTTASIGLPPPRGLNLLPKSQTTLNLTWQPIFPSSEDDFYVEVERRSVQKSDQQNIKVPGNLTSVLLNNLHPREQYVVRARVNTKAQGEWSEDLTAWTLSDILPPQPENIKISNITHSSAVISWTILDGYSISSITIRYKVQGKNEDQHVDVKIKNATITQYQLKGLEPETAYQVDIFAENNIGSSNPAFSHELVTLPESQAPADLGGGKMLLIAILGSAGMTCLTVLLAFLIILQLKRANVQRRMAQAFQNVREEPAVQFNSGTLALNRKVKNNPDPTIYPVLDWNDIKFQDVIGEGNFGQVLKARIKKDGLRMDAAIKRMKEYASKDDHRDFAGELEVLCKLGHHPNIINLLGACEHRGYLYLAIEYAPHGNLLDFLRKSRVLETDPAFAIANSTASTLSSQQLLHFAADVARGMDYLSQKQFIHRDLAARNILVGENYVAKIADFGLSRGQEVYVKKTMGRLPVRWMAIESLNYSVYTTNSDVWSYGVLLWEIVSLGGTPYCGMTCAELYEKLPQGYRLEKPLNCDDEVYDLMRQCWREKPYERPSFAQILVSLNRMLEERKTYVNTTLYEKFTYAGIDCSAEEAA
# Sequence of Mitogen-activated protein kinase 3 (Homo sapiens) (P27361 whole entry, canonical isoform): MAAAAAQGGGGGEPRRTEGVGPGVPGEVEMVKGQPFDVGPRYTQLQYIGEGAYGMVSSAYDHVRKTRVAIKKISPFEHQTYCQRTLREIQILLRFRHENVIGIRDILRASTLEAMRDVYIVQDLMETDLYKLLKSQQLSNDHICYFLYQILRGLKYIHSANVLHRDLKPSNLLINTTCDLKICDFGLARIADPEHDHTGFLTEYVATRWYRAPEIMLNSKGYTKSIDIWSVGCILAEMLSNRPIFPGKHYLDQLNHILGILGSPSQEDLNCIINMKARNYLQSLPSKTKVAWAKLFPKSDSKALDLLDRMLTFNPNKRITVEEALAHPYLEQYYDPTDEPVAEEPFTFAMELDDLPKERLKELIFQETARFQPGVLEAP
# Sequence of Serine/threonine-protein kinase PAK 4 (Homo sapiens) (O96013 whole entry, looked up): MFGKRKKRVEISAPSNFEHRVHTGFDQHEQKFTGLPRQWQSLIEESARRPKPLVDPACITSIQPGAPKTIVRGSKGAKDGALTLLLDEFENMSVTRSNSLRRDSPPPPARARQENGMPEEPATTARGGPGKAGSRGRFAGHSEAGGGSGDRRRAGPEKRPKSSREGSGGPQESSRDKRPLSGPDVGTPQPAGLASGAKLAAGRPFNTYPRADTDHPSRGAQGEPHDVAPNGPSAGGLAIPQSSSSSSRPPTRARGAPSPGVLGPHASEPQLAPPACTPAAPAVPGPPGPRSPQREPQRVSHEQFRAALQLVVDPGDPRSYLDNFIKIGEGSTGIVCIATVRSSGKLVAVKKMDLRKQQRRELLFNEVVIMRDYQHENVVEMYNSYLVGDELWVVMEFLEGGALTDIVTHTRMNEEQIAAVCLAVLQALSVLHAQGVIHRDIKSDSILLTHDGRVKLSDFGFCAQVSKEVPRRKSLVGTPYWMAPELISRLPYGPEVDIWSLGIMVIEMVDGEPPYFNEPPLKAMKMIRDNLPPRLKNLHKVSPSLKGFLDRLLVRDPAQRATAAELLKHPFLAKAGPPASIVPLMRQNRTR
smiles,measurement,setting,value
NCCCC[C@H](NC(=O)[C@H](CC(=O)O)NC(=O)[C@H](CC(=O)O)NC(=O)[C@H](CC(=O)O)NC(=O)[C@H](CC(=O)O)NC(=O)[C@H](CC(=O)O)NC(=O)[C@H](CC(=O)O)NC(=O)CCCCCCCCOc1nc2cc(C(=O)O)ccc2c2cnccc12)C(=O)O (X1-DDDDDDK-OH),Activity,[1],96%
same,Activity,[2],107%
same,Activity,[3],93%
same,Activity,[4],106%
same,Activity,[5],82%
same,Activity,[6],97%
same,Activity,[7],84%
same,Activity,[8],102%
same,Activity,[9],93%
same,Activity,[10],84%
same,Activity,[11],86%
same,Activity,[12],4%
same,Activity,[13],10%
same,Activity,[14],85%
same,Activity,[15],26%
same,Activity,[16],90%
same,Activity,[17],91%
same,Activity,[18],41%
same,Activity,[19],34%
same,Activity,[20],62%
same,Activity,[21],85%
same,Activity,[22],97%
same,Activity,[23],86%
same,Activity,[24],111%
